Assay results published in US10030020B2, “Spirocycle compounds and methods of making and using same” (Abide Therapeutics, Inc., priority 2016, dated 2018).
Like-named read-outs stand apart in the source and are kept apart here.

Tests used:
FAAH [1] = target: T1, FAAH (Mus musculus (Mouse), UniProt O08914); experiment: In vitro competitive activity-based protein profiling (mouse brain membrane fraction or cell lysates), FAAH band; assay type: biochemical; conditions: for inhibition at 1 µM: read-out: FAAH % Inh 1 μM (mouse)
T1 sequence (O08914 whole entry): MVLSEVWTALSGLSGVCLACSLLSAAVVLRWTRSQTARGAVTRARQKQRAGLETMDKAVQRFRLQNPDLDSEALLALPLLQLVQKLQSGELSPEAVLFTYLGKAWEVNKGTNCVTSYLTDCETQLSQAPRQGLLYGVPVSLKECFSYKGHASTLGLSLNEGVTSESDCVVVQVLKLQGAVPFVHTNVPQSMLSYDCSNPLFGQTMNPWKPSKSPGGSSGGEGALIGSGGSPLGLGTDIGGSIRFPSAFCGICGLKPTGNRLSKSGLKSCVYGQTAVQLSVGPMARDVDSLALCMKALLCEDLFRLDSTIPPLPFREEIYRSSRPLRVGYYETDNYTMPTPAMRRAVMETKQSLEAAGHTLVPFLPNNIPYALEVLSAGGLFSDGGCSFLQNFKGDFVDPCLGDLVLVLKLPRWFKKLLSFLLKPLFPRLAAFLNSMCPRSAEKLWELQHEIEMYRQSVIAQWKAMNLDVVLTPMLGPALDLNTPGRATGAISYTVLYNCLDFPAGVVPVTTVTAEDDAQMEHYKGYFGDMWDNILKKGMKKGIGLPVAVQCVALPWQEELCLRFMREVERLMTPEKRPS
In short: (§1)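 Mouse proteome samples (brain membrane fraction or cell lysate, 1.0 mg/mL protein) were pretreated with varying inhibitor concentrations and subsequently probed with fluorophosphonate-rhodamine, each step lasting 30 min at 37° C. Labelled proteins were separated by SDS-PAGE, and band fluorescence was imaged and quantified.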

FAAH [2] = target: T1, FAAH; experiment: Mouse brain proteomes from inhibitor treated mice (oral gavage, sacrificed 4 h after administration, ABPP analysis), FAAH; assay type: in vivo, mouse (C57Bl/6J); conditions: 5 mg/kg oral gavage
In short: (§2)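 Percent inhibition in brain tissue measured by ABPP 4 h after a single oral gavage dose (5 mg/kg) to wild-type C57Bl/6J mice; vehicle was, for example, PEG400/Ethanol/PBS at 7/2/1.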

MAGL [3] = target: T2, MAGL (Mus musculus (Mouse), UniProt O35678); experiment: Mouse brain proteomes from inhibitor treated mice (oral gavage, sacrificed 4 h after administration, ABPP analysis); assay type: in vivo, mouse (C57Bl/6J); conditions: 5 mg/kg oral gavage
T2 sequence (O35678 whole entry): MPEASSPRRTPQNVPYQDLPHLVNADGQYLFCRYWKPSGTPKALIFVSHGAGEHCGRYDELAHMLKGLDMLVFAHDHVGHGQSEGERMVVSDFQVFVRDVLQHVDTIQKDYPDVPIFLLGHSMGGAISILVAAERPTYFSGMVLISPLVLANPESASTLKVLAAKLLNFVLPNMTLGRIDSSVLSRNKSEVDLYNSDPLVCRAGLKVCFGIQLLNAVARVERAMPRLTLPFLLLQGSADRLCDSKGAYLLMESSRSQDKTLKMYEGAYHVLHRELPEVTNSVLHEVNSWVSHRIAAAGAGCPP
In short: as §2

MAGL [4] = target: MAGL (Homo sapiens (Human), UniProt Q99685); experiment: In vitro competitive activity-based protein profiling (human prefrontal cortex or cell membrane fractions; hMAGL expressed in HEK293T cells); assay type: biochemical
Sequence of MAGL (Homo sapiens (Human), UniProt Q99685) (Q99685 whole entry): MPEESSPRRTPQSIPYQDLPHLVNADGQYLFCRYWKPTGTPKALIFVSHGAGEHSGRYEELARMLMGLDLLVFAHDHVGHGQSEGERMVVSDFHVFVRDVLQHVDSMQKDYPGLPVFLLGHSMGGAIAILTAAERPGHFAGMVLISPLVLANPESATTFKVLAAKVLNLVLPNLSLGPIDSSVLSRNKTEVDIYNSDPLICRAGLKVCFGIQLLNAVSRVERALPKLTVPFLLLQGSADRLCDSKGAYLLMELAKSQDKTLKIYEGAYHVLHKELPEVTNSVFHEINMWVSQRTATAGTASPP
In short: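 Human prefrontal cortex or cell membrane proteomes (1.0-2.0 mg/mL), or lysates of HEK293T cells expressing hMAGL diluted into mock proteome, preincubated with inhibitor 30 min at 37° C. FP-Rh or JW912 probe then added for 30 min at room temperature. Residual labeling resolved by SDS-PAGE.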

MAGL [5] = target: T2, MAGL; experiment: In vitro competitive activity-based protein profiling (mouse brain membrane fraction or cell lysates), MAGL band; assay type: biochemical; conditions: for inhibition at 1 µM: read-out: MAGL % Inh 1 μM (mouse)
Procedure: In Vitro Competitive Activity-Based Protein Profiling.
Proteomes (mouse brain membrane fraction or cell lysates) (50 μL, 1.0 mg/mL total protein concentration) were preincubated with varying concentrations of inhibitors at 37° C. After 30 min, FP—Rh (1.0 μL, 50 μM in DMSO) was added and the mixture was incubated for another 30 min at 37° C. Reactions were quenched with SDS loading buffer (50 μL-4×) and run on SDS-PAGE.

ABHD6 [6] = target: T3, ABHD6 (Mus musculus (Mouse), UniProt Q8R2Y0); experiment: Mouse brain proteomes from inhibitor treated mice (oral gavage, sacrificed 4 h after administration, ABPP analysis), ABHD6; assay type: in vivo, mouse (C57Bl/6J); conditions: 5 mg/kg oral gavage
T3 sequence (Q8R2Y0 whole entry): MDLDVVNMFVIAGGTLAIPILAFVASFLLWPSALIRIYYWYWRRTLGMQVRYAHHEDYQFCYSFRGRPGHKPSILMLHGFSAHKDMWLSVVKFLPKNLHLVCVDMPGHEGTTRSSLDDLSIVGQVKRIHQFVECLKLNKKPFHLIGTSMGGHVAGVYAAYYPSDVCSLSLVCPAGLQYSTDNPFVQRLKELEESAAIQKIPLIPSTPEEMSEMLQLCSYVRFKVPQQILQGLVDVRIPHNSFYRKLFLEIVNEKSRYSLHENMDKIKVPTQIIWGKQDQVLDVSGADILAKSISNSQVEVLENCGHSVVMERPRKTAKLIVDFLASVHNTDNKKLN
In short: as §2

ABHD6 [7] = target: T3, ABHD6; experiment: In vitro competitive activity-based protein profiling (mouse brain membrane fraction or cell lysates), ABHD6 band; assay type: biochemical; conditions: for inhibition at 1 µM: read-out: ABHD6 % Inh 1 μM (mouse)
In short: as §1

[8] = mouse proteome, competitive ABPP
[9] = human proteome, competitive ABPP

SMILES	inhibition at 1 µM (FAAH [1]; mouse proteome) [%]	IC50 (FAAH [1]; [8]) [nM]	FAAH % Inh 5 mg/kg (mouse) (FAAH [2])	IC50 (MAGL [4]; [9]) [nM]	inhibition at 1 µM (MAGL [5]; mouse proteome) [%]	IC50 (MAGL [5]; [8]) [nM]	ABHD6 % Inh 5 mg/kg (mouse) (ABHD6 [6])	inhibition at 1 µM (ABHD6 [7]; mouse proteome) [%]	IC50 (ABHD6 [7]; [8]) [nM]	inhibition at 1 µM (FAAH [1]; mouse) [%]	IC50 (MAGL [4]; human) [nM]	inhibition at 1 µM (MAGL [5]; mouse) [%]	inhibition at 1 µM (ABHD6 [7]; mouse) [%]	MAGL % Inh 5 mg/kg (mouse) (MAGL [3])
CN1CCCc2ccc(CN3CCCC34CCN(C(=O)OC(C(F)(F)F)C(F)(F)F)CC4)cc21 [Example 68, 1,1,1,3,3,3-Hexafluoropropan-2-yl 1-((1-methyl-1,2,3,4-tetrahydroquinolin-7-yl)methyl)-1,8-diazaspiro[4.5]decane-8-carboxylate]	< 25	> 1000	# (# is <25%)	< 100	> 75	< 100	# (# is <25%)	< 25	> 1000					### (### is ≥75%)
O=C(O)C1CCN(Cc2cc(CN3CCCC34CCN(C(=O)OC(C(F)(F)F)C(F)(F)F)CC4)cc(C(F)(F)F)c2)CC1 [Example 244]			# (# is <25%)				# (# is <25%)			< 25	< 100	> 75	< 25	### (### is ≥75%)
CC1(C(=O)O)CN(c2cc(C(F)(F)F)ccc2CN2CCC3(CCN(C(=O)OC(C(F)(F)F)C(F)(F)F)CC3)C2)CCO1 (centres unmarked) [Example 256]			# (# is <25%)				# (# is <25%)			< 25	< 100	> 75	< 25	# (# is <25%)
O=C(O)C1CCN(Cc2cc(Cl)cc(CN3CCCC34CCN(C(=O)OC(C(F)(F)F)C(F)(F)F)CC4)c2)CC1 [Example 194, 1-(3-Chloro-5-((8-(((1,1,1,3,3,3-hexafluoropropan-2-yl)oxy)carbonyl)-1,8-diazaspiro[4.5]decan-1-yl)methyl)benzyl)piperidine-4-carboxylic acid]	< 25		# (# is <25%)	< 100	> 75		# (# is <25%)	< 25						## (## is equal to or greater than 25% but less than 75%)
N#Cc1cc(CN2CCCC23CCN(C(=O)OC(C(F)(F)F)C(F)(F)F)CC3)cc(N2CCC(C(=O)O)CC2)c1 [Example 210]	< 25		# (# is <25%)	< 100	> 75		## (## is equal to or greater than 25% but less than 75%)	< 25						### (### is ≥75%)

Further lines, with some results ahead:

inhibition at 1 µM (FAAH [1]; mouse proteome) [%]	IC50 (FAAH [1]; [8]) [nM]	FAAH % Inh 5 mg/kg (mouse) (FAAH [2])	IC50 (MAGL [4]; [9]) [nM]	inhibition at 1 µM (MAGL [5]; mouse proteome) [%]	IC50 (MAGL [5]; [8]) [nM]	ABHD6 % Inh 5 mg/kg (mouse) (ABHD6 [6])	inhibition at 1 µM (ABHD6 [7]; mouse proteome) [%]	IC50 (ABHD6 [7]; [8]) [nM]	inhibition at 1 µM (FAAH [1]; mouse) [%]	IC50 (MAGL [4]; human) [nM]	inhibition at 1 µM (MAGL [5]; mouse) [%]	inhibition at 1 µM (ABHD6 [7]; mouse) [%]	SMILES	MAGL % Inh 5 mg/kg (mouse) (MAGL [3])
< 25		# (# is <25%)	< 100	> 75		# (# is <25%)	< 25						CS(=O)(=O)C1CCN(c2cc(C(F)(F)F)ccc2CN2CCCC23CCN(C(=O)OC(C(F)(F)F)C(F)(F)F)CC3)C1 (centres unmarked) [Example 193, 1,1,1,3,3,3-Hexafluoropropan-2-yl 1-(2-(3-(methylsulfonyl)pyrrolidin-1-yl)-4-(trifluoromethyl)benzyl)-1,8-diazaspiro[4.5]decane-8-carboxylate]	## (## is equal to or greater than 25% but less than 75%)
< 25		# (# is <25%)	< 100	> 75		# (# is <25%)	< 25						O=C(O)[C@@H]1CCCN(c2cc(C(F)(F)F)ccc2CN2CCC3(CCN(C(=O)OC(C(F)(F)F)C(F)(F)F)CC3)C2)C1 [Example 211]	## (## is equal to or greater than 25% but less than 75%)
		# (# is <25%)				# (# is <25%)			< 25	< 100	> 75	< 25	O=C(O)C1CCN(Cc2cc(CN3CCCC34CCN(C(=O)OC(C(F)(F)F)C(F)(F)F)CC4)cc(C(F)(F)F)c2)C1 (centres unmarked) [Example 253]	## (## is equal to or greater than 25% but less than 75%)
